In patent publication US12404285B2, “KRAS G12D proteolysis targeting chimeras” (PAQ Therapeutics Inc., priority 2022, dated 2025):

Target: T1, KRAS (G12D)-HiBit in AsPc-1-KRAS (G12D)-HiBit-KI cell (Homo sapiens, UniProt P01116, G12D)
T1 construct: host or cells: AsPc-1-KRAS (G12D)-HiBit-KI cells (knock-in line)
Experiment: G12D HiBit assay
Type: cell-based
Settings: 24 hours compound treatment, absolute DC50, read-out: Average PHA DC50
Experimental: Day 1. Prepared the culture medium for AsPc-1-KRAS (G12D)-HiBit-KI cell (Pharmaron) using RPMI 1640 medium (Gibco, 11875093) with 10% FBS (Gibco, 10099141C) and 1% Penicillin-Streptomycin Liquid (Solarbio, P1400). Cultivated cells in T-75 flasks in a cell culture incubator (Thermo, Model: 371) at 37° C., 5% CO2. Allowed cells to reach approximately 80% confluence before splitting. Rinsed cultivated cells in T-75 flasks with 5 mL PBS (Solarbio, P1020-500). Aspirated off PBS, added 1.5 mL trypsin (Invitrogen, #25300), and incubated at 37° C. for approximately 5 minutes or until the cells detached. Inactivated trypsin by adding excessive serum containing medium. Harvested the cells from flask into cell culture medium and counted the cell number. Seeded AsPc-1-KRAS (G12D)-HiBit-KI cell into 384-well plate (Corning, 3570) (cell density: 5×10^3 cells/well in 50 μL medium) in RPMI 1640 medium and incubated overnight at 37° C. and 5% CO2.
Day 2. Test compounds were dissolved at 0.3 mM in DMSO (Solarbio, D8371) as stock solution. Transferred 45 μL of stock solution to a 384-well plate (Labcyte, 001-14555). Performed 3-fold, 10-points dilution via transferring 15 μL compound into 30 μL DMSO by using TECAN liquid handler (TECAN, Freedom EVO200). The compound plates were spin at room temperature at 1,000 RPM for 1 minute (Eppendorf, 5810R). Transferred 50 nL of diluted compounds from compound source plate into the cell plate by Echo (Labcyte, 550) to achieve final concentrations of 300 nM, 100 nM, 33.3 nM, 11.1 nM, 3.7 nM, 1.23 nM, 0.41 nM, 0.14 nM, 0.046 nM and 0.015 nM, then mixed the cell plate on a plate shaker (Yoning, WZ-4) for 15 seconds at 900 rpm. After compound treatment for 24 hours, removed the plate from incubators and equilibrated at room temperature for 15 minutes. Prepared the HiBit reagent (Promega, N3040) by mixing 10 mL of Nano-Glo®-HiBiT Lytic Buffer with 200 μL of Nano-Glo®-HiBiT Lytic Substrate and 100 μL of LgBiT Protein. Added 20 μL of HiBit reagent into each well of the cell plate and spun the plates at room temperature at 1,000 RPM for 1 minute. Then shook the plates at 600 RPM at room temperature for 20 minutes using a plate shaker (Yoning, WZ-4), and read the luminescence by EnVision (PerkinElmer, 2105-0020).
The inhibition activity was calculated using the following formula: HiBit-G12D level (%)=100%×[Luminescence(Sample)/Mean of Luminescence (HC)] where HC (high control) is obtained from cells treated with 0.1% DMSO only.
Absolute DC50 was calculated by fitting the curve using GraphPad Prism v8.0.2 (analyis 263): Y=Bottom+(100−Bottom)/(1+10^(Log AbsoluteIC50−X)*HillSlope+log((100−Bottom)/(50−Bottom)−1)))
The data are reported in Table 3, wherein “+++”=DC50 less than 100 nM, “++”=DC50 greater than or equal to 100 nM and less than 300 nM; “+”=DC50 greater than or equal to 300 nM.

T1 sequence (P01116 1-188 isoform P01116-2 G12D): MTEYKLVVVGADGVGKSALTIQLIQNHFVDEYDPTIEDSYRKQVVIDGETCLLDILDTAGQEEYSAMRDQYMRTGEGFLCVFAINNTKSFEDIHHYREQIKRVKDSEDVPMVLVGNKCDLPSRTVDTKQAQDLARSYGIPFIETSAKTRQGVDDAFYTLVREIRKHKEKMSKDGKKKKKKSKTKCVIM

SMILES | DC50 [nM]
CCc1c(F)ccc2cc(O)cc(-c3ncc4c(N5CCCC6(CCO6)C5)nc(OC[C@@]56CCCN5[C@H](COC(=O)N5CCC(OCCCc7cccc8c7n(C)c(=O)n8C7CCC(=O)NC7=O)CC5)CC6)nc4c3F)c12 (stereo partly drawn) [Compound 34] | < 100
C#Cc1c(F)ccc2cc(O)cc(-c3ncc4c(N5CCCC6(CCO6)C5)nc(OC[C@@]56CCCN5[C@H](COC(=O)N5CCC(OCCCc7cccc8c7n(C)c(=O)n8C7CCC(=O)NC7=O)CC5)CC6)nc4c3F)c12 (stereo partly drawn) [Compound 35] | < 100
C#Cc1c(F)ccc2cccc(-c3ncc4c(N5CCCC6(CCO6)C5)nc(OC[C@@]56CCCN5[C@H](COC(=O)N5CCC(OCCCc7cccc8c7n(C)c(=O)n8C7CCC(=O)NC7=O)CC5)CC6)nc4c3F)c12 (stereo partly drawn) [Compound 36] | ≥ 300
C#Cc1c(F)ccc2cccc(-c3ncc4c(N5CC6CCC(C5)N6)nc(OC[C@@]56CCCN5[C@H](COC(=O)N5CCC(OCc7cccc8c7n(C)c(=O)n8C7CCC(=O)NC7=O)CC5)CC6)nc4c3F)c12 (stereo partly drawn) [Compound 37, [(3S,8S)-8-[[4-(3,8-Diazabicyclo[3.2.1]octan-3-yl)-7-(8-ethynyl-7-fluoro-1-naphthyl)-8-fluoro-pyrido[4,3-d]pyrimidin-2-yl]oxymethyl]-1,2,3,5,6,7-hexahydropyrrolizin-3-yl]methyl4-[[1-(2,6-dioxo-3-piperidyl)-3-methyl-2-oxo-benzimidazol-4-yl]methoxy]piperidine-1-carboxylate] | 100 to 300
C#Cc1c(F)ccc2cccc(-c3ncc4c(N5CC6CCC(C5)N6)nc(OC[C@@]56CCCN5[C@H](COC(=O)N5CCC(CN7CCC(c8cccc9c8n(C)c(=O)n9C8CCC(=O)NC8=O)CC7)CC5)CC6)nc4c3F)c12 (stereo partly drawn) [Compound 38, [(3S,8S)-8-[[4-(3,8-Diazabicyclo[3.2.1]octan-3-yl)-7-(8-ethynyl-7-fluoro-1-naphthyl)-8-fluoro-pyrido[4,3-d]pyrimidin-2-yl]oxymethyl]-1,2,3,5,6,7-hexahydropyrrolizin-3-yl]methyl4-[[4-[1-(2,6-dioxo-3-piperidyl)-3-methyl-2-oxo-benzimidazol-4-yl]-1-piperidyl]methyl]piperidine-1-carboxylate] | < 100
C#Cc1c(F)ccc2cccc(-c3ncc4c(N5CC6CCC(C5)N6)nc(OC[C@@]56CCCN5[C@H](COC(=O)NCCCC(=O)N5CCC(c7cccc8c7n(C)c(=O)n8C7CCC(=O)NC7=O)CC5)CC6)nc4c3F)c12 (stereo partly drawn) [Compound 39, [(3S,8S)-8-[[4-(3,8-Diazabicyclo[3.2.1]octan-3-yl)-7-(8-ethynyl-7-fluoro-1-naphthyl)-8-fluoro-pyrido[4,3-d]pyrimidin-2-yl]oxymethyl]-1,2,3,5,6,7-hexahydropyrrolizin-3-yl]methyl N-[4-[4-[1-(2,6-dioxo-3-piperidyl)-3-methyl-2-oxo-benzimidazol-4-yl]-1-piperidyl]-4-oxo-butyl]carbamate] | ≥ 300
C#Cc1c(F)ccc2cccc(-c3ncc4c(N5CC6CCC(C5)N6)nc(OC[C@@]56CCCN5[C@H](COC(=O)N5CCC7(CC5)CN(CCCc5cccc8c5n(C)c(=O)n8C5CCC(=O)NC5=O)CCO7)CC6)nc4c3F)c12 (stereo partly drawn) [Compound 40] | < 100
C#Cc1c(F)ccc2cccc(-c3ncc4c(N5CC6CCC(C5)N6)nc(OC[C@@]56CCCN5[C@H](COC(=O)N5CCC(CCCCc7cccc8c7n(C)c(=O)n8C7CCC(=O)NC7=O)CC5)CC6)nc4c3F)c12 (stereo partly drawn) [Compound 41] | ≥ 300
C#Cc1c(F)ccc2cccc(-c3ncc4c(N5CC6CCC(C5)N6)nc(OC[C@@]56CCCN5[C@H](COC(=O)N5CC(CN7CCN(c8ccc9c(c8)n(C)c(=O)n9C8CCC(=O)NC8=O)CC7)C5)CC6)nc4c3F)c12 (stereo partly drawn) [Compound 42] | < 100
C#Cc1c(F)ccc2cccc(-c3ncc4c(N5CC6CCC(C5)N6)nc(OC[C@@]56CCCN5[C@H](COC(=O)N5CCC(CCCCc7ccc8c(c7)n(C)c(=O)n8C7CCC(=O)NC7=O)CC5)CC6)nc4c3F)c12 (stereo partly drawn) [Compound 43] | ≥ 300
C#Cc1c(F)ccc2cccc(-c3ncc4c(N5CC6CCC(C5)N6)nc(OC[C@@]56CCCN5[C@H](COC(=O)N5CCC(CN7CCC(c8ccc9c(c8)n(C)c(=O)n9C8CCC(=O)NC8=O)CC7)CC5)CC6)nc4c3F)c12 (stereo partly drawn) [Compound 44] | < 100
C#Cc1c(F)ccc2cccc(-c3ncc4c(N5CC6CCC(C5)N6)nc(OC[C@@]56CCCN5[C@H](COC(=O)NCCCC(=O)N5CCC(c7ccc8c(c7)n(C)c(=O)n8C7CCC(=O)NC7=O)CC5)CC6)nc4c3F)c12 (stereo partly drawn) [Compound 45] | ≥ 300
C#Cc1c(F)ccc2cccc(-c3ncc4c(N5CC6CCC(C5)N6)nc(OC[C@@]56CCCN5[C@H](COC(=O)N5CCC7(CC5)CN(CC#Cc5cccc8c5n(C)c(=O)n8C5CCC(=O)NC5=O)CCO7)CC6)nc4c3F)c12 (stereo partly drawn) [Compound 46] | ≥ 300
C#Cc1c(F)ccc2cccc(-c3ncc4c(N5CC6CCC(C5)N6)nc(OC[C@@]56CCCN5[C@H](COC(=O)N5CCC(CC7CCN(Cc8ccc9c(c8)n(C)c(=O)n9C8CCC(=O)NC8=O)CC7)CC5)CC6)nc4c3F)c12 (stereo partly drawn) [Compound 47] | < 100
C#Cc1c(F)ccc2cccc(-c3ncc4c(N5CC6CCC(C5)N6)nc(OC[C@@]56CCCN5[C@H](COC(=O)N5CCC(CC7CCN(c8cccc9c8n(C)c(=O)n9C8CCC(=O)NC8=O)CC7)CC5)CC6)nc4c3F)c12 (stereo partly drawn) [Compound 48] | ≥ 300
C#Cc1c(F)ccc2cccc(-c3ncc4c(N5CC6CCC(C5)N6)nc(OC[C@@]56CCCN5[C@H](COC(=O)N5CCC(CCC7CCN(Cc8cccc9c8n(C)c(=O)n9C8CCC(=O)NC8=O)CC7)CC5)CC6)nc4c3F)c12 (stereo partly drawn) [Compound 49] | ≥ 300
C#Cc1c(F)ccc2cccc(-c3ncc4c(N5CC6CCC(C5)N6)nc(OC[C@@]56CCCN5[C@H](COC(=O)N5CCC(OCCC#Cc7ccc8c(c7)n(C)c(=O)n8C7CCC(=O)NC7=O)CC5)CC6)nc4c3F)c12 (stereo partly drawn) [Compound 50] | < 100
C#Cc1c(F)ccc2cccc(-c3ncc4c(N5CC6CCC(C5)N6)nc(OC[C@@]56CCCN5[C@H](COC(=O)N5CCC(C7CCN(Cc8cccc9c8n(C)c(=O)n9C8CCC(=O)NC8=O)CC7)CC5)CC6)nc4c3F)c12 (stereo partly drawn) [Compound 51] | < 100
C#Cc1c(F)ccc2cccc(-c3ncc4c(N5CC6CCC(C5)N6)nc(OC[C@@]56CCCN5[C@H](COC(=O)N5CCC(OC7CCN(Cc8ccc9c(c8)n(C)c(=O)n9C8CCC(=O)NC8=O)CC7)CC5)CC6)nc4c3F)c12 (stereo partly drawn) [Compound 52] | < 100
C#Cc1c(F)ccc2cccc(-c3ncc4c(N5CC6CCC(C5)N6)nc(OC[C@@]56CCCN5[C@H](COC(=O)N5CCC(N7CCN(Cc8cccc9c8n(C)c(=O)n9C8CCC(=O)NC8=O)CC7)CC5)CC6)nc4c3F)c12 (stereo partly drawn) [Compound 53, [(3S,8S)-8-[[4-(3,8-diazabicyclo [3.2.1]octan-3-yl)-7-(8-ethynyl-7-fluoro-1-naphthyl)-8-fluoro-pyrido[4,3-d]pyrimidin-2-yl]oxymethyl]-1,2,3,5,6,7-hexahydropyrrolizin-3-yl]methyl4-[4-[[1-(2,6-dioxo-3-piperidyl)-3-methyl-2-oxo-benzimidazol-4-yl]methyl]piperazin-1-yl]piperidine-1-carboxylate] | < 100
C#Cc1c(F)ccc2cccc(-c3ncc4c(N5CC6CCC(C5)N6)nc(OC[C@@]56CCCN5[C@H](COC(=O)N5CCC(OC7CN(Cc8cccc9c8n(C)c(=O)n9C8CCC(=O)NC8=O)C7)CC5)CC6)nc4c3F)c12 (stereo partly drawn) [Compound 54, [(3S,8S)-8-[[4-(3,8-Diazabicyclo[3.2.1]octan-3-yl)-7-(8-ethynyl-7-fluoro-1-naphthyl)-8-fluoro-pyrido[4,3-d]pyrimidin-2-yl]oxymethyl]-1,2,3,5,6,7-hexahydropyrrolizin-3-yl]methyl 4-[1-[[1-(2,6-dioxo-3-piperidyl)-3-methyl-2-oxo-benzimidazol-4-yl]methyl]azetidin-3-yl]oxypiperidine-1-carboxylate] | < 100
